Results published in ChEMBL document CHEMBL5252592, “Design, synthesis, and biological activity evaluation of novel tubulin polymerization inhibitors based on pyrimidine ring skeletons” (Bioorg Med Chem Lett, 2023).
Active and inactive are the calls of the source. No cut-off for these calls is given here.

Experiments:
[1] = system: HepG2; test: Antiinvasive activity in human HepG2 cells assessed as decrease in cells invading inferior chamber by transwell assay; assay type: functional, cell-based; settings: dose 50-200 nM
[2] = system: HepG2; test: Antimigratory activity in human HepG2 cells assessed as reduction in wound closure by scratch assay; assay type: functional, cell-based; settings: dose 50-200 nM
[3] = target: T1, Tubulin (Homo sapiens) (UniProt P68371+Q9H4B7+P0DPH7+P68366+Q13509+Q71U36+P04350+Q3ZCM7+P07437+P68363+Q9BQE3+Q6PEY2+Q13885+Q9BVA1+Q9BUF5); test: Disruption of microtubule organization in human HepG2 cells assessed as diffused intracellular microtubules at 50 to 200 nM by immunofluorescence staining based laser confocal microscopic analysis; assay type: cell-based; settings: dose 50-200 nM
[4] = target: T1, Tubulin (Homo sapiens); test: Disruption of microtubule organization in human HepG2 cells assessed as round or polygonal shaped cells at 50 to 200 nM by immunofluorescence staining based laser confocal microscopic analysis; assay type: cell-based; settings: dose 50-200 nM
[5] = target: T1, Tubulin (Homo sapiens); test: Disruption of microtubule organization in human HepG2 cells assessed as cell shrinkage at 50 to 200 nM by immunofluorescence staining based laser confocal microscopic analysis; settings: dose 50-200 nM
[6] = target: T1, Tubulin (Homo sapiens); test: Inhibition of tubulin polymerization (unknown origin) assessed as decrease in fluorescence intensity at 2 uM; assay type: protein-complex assay; settings: time 1000-2000 min, TDE = time-dependent effect
[7] = system: A549; test: Antiproliferative activity against human A549 cells assessed as inhibition of cell growth; assay type: functional, cell-based
[8] = system: HepG2; test: Antiproliferative activity against human HepG2 cells assessed as inhibition of cell growth; assay type: functional, cell-based
[9] = system: U-937; test: Antiproliferative activity against human U-937 cells assessed as inhibition of cell growth; assay type: functional, cell-based
[10] = system: Y79; test: Antiproliferative activity against human Y79 cells assessed as inhibition of cell growth; assay type: functional, cell-based
[11] = system: HepG2; test: Induction of cell cycle arrest in human HepG2 cells assessed as decrease in G1 phase cells at 50 nM incubated for 24 hrs by PI staining based flow cytometric analysis (reference value: 73.85%); assay type: functional; set-up: scale not given: the % may be the effect or the level left
[12] = system: HepG2; test: Induction of cell cycle arrest in human HepG2 cells assessed as decrease in S phase cells at 50 nM incubated for 24 hrs by PI staining based flow cytometric analysis (reference value: 12.75%); assay type: functional; set-up: scale not given: the % may be the effect or the level left
[13] = system: HepG2; test: Induction of cell cycle arrest in human HepG2 cells assessed as increase in G2 phase cells at 50 nM incubated for 24 hrs by PI staining based flow cytometric analysis (reference value: 13.40%); assay type: functional
[14] = system: HepG2; test: Induction of cell cycle arrest in human HepG2 cells assessed as decrease in G1 phase cells at 100 nM incubated for 24 hrs by PI staining based flow cytometric analysis (reference value: 73.85%); assay type: functional; set-up: scale not given: the % may be the effect or the level left
[15] = system: HepG2; test: Induction of cell cycle arrest in human HepG2 cells assessed as decrease in S phase cells at 100 nM incubated for 24 hrs by PI staining based flow cytometric analysis (reference value: 12.75%); assay type: functional; set-up: scale not given: the % may be the effect or the level left
[16] = system: HepG2; test: Induction of cell cycle arrest in human HepG2 cells assessed as increase in G2 phase cells at 100 nM incubated for 24 hrs by PI staining based flow cytometric analysis (reference value: 13.40%); assay type: functional
[17] = system: HepG2; test: Induction of cell cycle arrest in human HepG2 cells assessed as decrease in G1 phase cells at 200 nM incubated for 24 hrs by PI staining based flow cytometric analysis (reference value: 73.85%); assay type: functional; set-up: scale not given: the % may be the effect or the level left
[18] = system: HepG2; test: Induction of cell cycle arrest in human HepG2 cells assessed as decrease in S phase cells at 200 nM incubated for 24 hrs by PI staining based flow cytometric analysis (reference value: 12.75%); assay type: functional; set-up: scale not given: the % may be the effect or the level left
[19] = system: HepG2; test: Induction of cell cycle arrest in human HepG2 cells assessed as increase in G2 phase cells at 200 nM incubated for 24 hrs by PI staining based flow cytometric analysis (reference value: 13.40%); assay type: functional
[20] = system: HepG2; test: Induction of apoptosis in human HepG2 cells assessed as viable cells at 50 nM incubated for 48 hrs by AnnexinV-FITC/PI staining based flow cytometric analysis (reference value: 92.0%); assay type: functional; settings: read-out: Activity
[21] = system: HepG2; test: Induction of apoptosis in human HepG2 cells assessed as early apoptotic cells at 50 nM incubated for 48 hrs by AnnexinV-FITC/PI staining based flow cytometric analysis (reference value: 1.83%); assay type: functional
[22] = system: HepG2; test: Induction of apoptosis in human HepG2 cells assessed as late apoptotic cells at 50 nM incubated for 48 hrs by AnnexinV-FITC/PI staining based flow cytometric analysis (reference value: 3.33%); assay type: functional
[23] = system: HepG2; test: Induction of apoptosis in human HepG2 cells assessed as necrotic cells at 50 nM incubated for 48 hrs by AnnexinV-FITC/PI staining based flow cytometric analysis (reference value: 2.82%); assay type: functional
[24] = system: HepG2; test: Induction of apoptosis in human HepG2 cells assessed as viable cells at 100 nM incubated for 48 hrs by AnnexinV-FITC/PI staining based flow cytometric analysis (reference value: 92.0%); assay type: functional; settings: read-out: Activity
[25] = system: HepG2; test: Induction of apoptosis in human HepG2 cells assessed as early apoptotic cells at 100 nM incubated for 48 hrs by AnnexinV-FITC/PI staining based flow cytometric analysis (reference value: 1.83%); assay type: functional
[26] = system: HepG2; test: Induction of apoptosis in human HepG2 cells assessed as late apoptotic cells at 100 nM incubated for 48 hrs by AnnexinV-FITC/PI staining based flow cytometric analysis (reference value: 3.33%); assay type: functional
[27] = system: HepG2; test: Induction of apoptosis in human HepG2 cells assessed as necrotic cells at 100 nM incubated for 48 hrs by AnnexinV-FITC/PI staining based flow cytometric analysis (reference value: 2.82%); assay type: functional
[28] = system: HepG2; test: Induction of apoptosis in human HepG2 cells assessed as viable cells at 200 nM incubated for 48 hrs by AnnexinV-FITC/PI staining based flow cytometric analysis (reference value: 92.0%); assay type: functional; settings: read-out: Activity
[29] = system: HepG2; test: Induction of apoptosis in human HepG2 cells assessed as early apoptotic cells at 200 nM incubated for 48 hrs by AnnexinV-FITC/PI staining based flow cytometric analysis (reference value: 1.83%); assay type: functional
[30] = system: HepG2; test: Induction of apoptosis in human HepG2 cells assessed as late apoptotic cells at 200 nM incubated for 48 hrs by AnnexinV-FITC/PI staining based flow cytometric analysis (reference value: 3.33%); assay type: functional
[31] = system: HepG2; test: Induction of apoptosis in human HepG2 cells assessed as necrotic cells at 200 nM incubated for 48 hrs by AnnexinV-FITC/PI staining based flow cytometric analysis (reference value: 2.82%); assay type: functional
[32] = system: HepG2; test: Induction of apoptosis in human HepG2 cells assessed as total apoptotic cells at 50 nM incubated for 48 hrs by AnnexinV-FITC/PI staining based flow cytometric analysis (reference value: 5.16%); assay type: functional
[33] = system: HepG2; test: Induction of apoptosis in human HepG2 cells assessed as total apoptotic cells at 100 nM incubated for 48 hrs by AnnexinV-FITC/PI staining based flow cytometric analysis (reference value: 5.16%); assay type: functional
[34] = system: HepG2; test: Induction of apoptosis in human HepG2 cells assessed as total apoptotic cells at 200 nM incubated for 48 hrs by AnnexinV-FITC/PI staining based flow cytometric analysis (reference value: 5.16%); assay type: functional
[35] = system: HepG2; test: Induction of G2/M phase cell cycle arrest in human HepG2 cells assessed as increase in P21 protein expression by Western blot analysis; assay type: functional, cell-based; settings: dose 50-200 nM
[36] = system: HepG2; test: Induction of G2/M phase cell cycle arrest in human HepG2 cells assessed as decrease in cyclinB1 protein expression by Western blot analysis; assay type: functional, cell-based; settings: dose 50-200 nM

For `COc1cc(Nc2nccc(-c3ccc4c(c3)OCCO4)n2)cc(OC)c1OC`, the Activity [1] was “Dose-Dependent Effect”, the Activity [2] was “Dose-Dependent Effect” and the Activity [3] was “Active”. For the same molecule, the Activity [4] was “Active”, the Activity [5] was “Active” and the inhibition [6] was “Tde”. The IC50 [7] was 0.8 µM, the IC50 [8] was 0.11 µM and the IC50 [9] was 0.07 µM. The IC50 [10] was 0.1 µM, the Activity [11] was 69.07% and the Activity [12] was 4.85%. It also gave an Activity [13] of 26.08%, an Activity [14] of 65.52% and an Activity [15] of 6.95%. The Activity [16] was 27.53%, the Activity [17] was 63.13% and the Activity [18] was 0.88%. It also gave an Activity [19] of 35.99%, a viability at 0.05 µM [20] of 61.5% and an Activity [21] of 21.5%. The Activity [22] was 16.9%, the Activity [23] was 0.12% and the viability at 0.1 µM [24] was 57.9%. It also gave an Activity [25] of 17.9%, an Activity [26] of 23.4% and an Activity [27] of 0.82%. The viability at 0.2 µM [28] was 63.3%, the Activity [29] was 10.9% and the Activity [30] was 33.7%. For the same molecule, the Activity [31] was 2.13%, the Activity [32] was 38.4% and the Activity [33] was 41.3%. For the same molecule, the Activity [34] was 43.6%, the Activity [35] was “Dose-Dependent Effect” and the Activity [36] was “Dose-Dependent Effect”.
